≈ marks a conversion by molar mass, not a printed value.
Legend:
Rattus norvegicus [1] = assay: Antiinflammatory activity in Wistar rat assessed as inhibition of carrageenan-induced edema measured upto 4 hrs; assay type: functional
[2] = Ulcerogenicity in Wistar rat assessed as gastric lesions; assay type: toxicity; conditions: in vivo
Candida albicans = assay: Antifungal activity against Candida albicans assessed as inhibition of fungal cell growth incubated for 72 hrs by disk diffusion method relative to control; assay type: functional
A549 [3] = assay: Antitumor activity against human A549 cells assessed as inhibition of cell viability at 50 uM by MTT assay; assay type: functional
A549 [4] = assay: Antitumor activity against human A549 cells assessed as inhibition of cell viability at 100 uM by MTT assay; assay type: functional
Rattus norvegicus [5] = organism: Rattus norvegicus; assay: Antiarthritic activity in adjuvant-induced Sprague-Dawley rat; assay type: functional
Rattus norvegicus [6] = assay: Antiinflammatory activity in Sprague-Dawley rat assessed as inhibition of carrageenan-induced paw edema at 3 mg/kg , po relative to control; assay type: functional
[7] = Ulcerogenicity in Sprague-Dawley rat assessed as gastric lesions at 50 mg/kg , po bid measured after 4 hrs; assay type: toxicity, organism-based; conditions: in vivo
Rattus norvegicus [8] = assay: Antiinflammatory activity in Sprague-Dawley rat assessed as inhibition of carrageenan-induced paw edema at 3 mg/kg , po incubated for 1 hr followed by carrageenan addition and measured after 4 hrs relative to control; assay type: functional
[9] = target: Prostaglandin G/H synthase 2 (Mus musculus, UniProt Q05769); assay: Inhibition of mouse COX-2 in LPS-induced mouse peritoneal macrophage assessed as reduction in PGE2 release incubated for 2 hrs by ELISA
Chain of Prostaglandin G/H synthase 2 (Mus musculus, UniProt Q05769) (Q05769 whole entry): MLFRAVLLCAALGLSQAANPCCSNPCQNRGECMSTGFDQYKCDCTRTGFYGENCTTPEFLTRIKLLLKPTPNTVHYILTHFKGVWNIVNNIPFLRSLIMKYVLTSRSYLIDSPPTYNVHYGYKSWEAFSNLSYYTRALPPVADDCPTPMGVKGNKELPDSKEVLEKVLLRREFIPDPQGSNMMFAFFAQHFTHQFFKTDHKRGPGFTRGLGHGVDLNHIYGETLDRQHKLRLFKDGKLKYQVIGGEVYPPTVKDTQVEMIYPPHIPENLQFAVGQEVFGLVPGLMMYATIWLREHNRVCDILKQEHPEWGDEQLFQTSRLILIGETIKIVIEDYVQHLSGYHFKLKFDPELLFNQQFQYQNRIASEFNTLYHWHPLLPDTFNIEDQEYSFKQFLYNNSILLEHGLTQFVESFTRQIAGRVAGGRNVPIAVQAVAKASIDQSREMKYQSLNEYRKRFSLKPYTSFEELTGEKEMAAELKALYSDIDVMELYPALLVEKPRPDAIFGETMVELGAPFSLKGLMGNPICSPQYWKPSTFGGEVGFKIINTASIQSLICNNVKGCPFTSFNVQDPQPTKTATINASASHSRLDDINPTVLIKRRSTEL

CYP3A4 = assay: Inhibition of CYP3A4 in Sprague-Dawley rat liver microsome assessed as remaining activity by measuring 1'-hydroxylation of midazolam at 3 x 10^-5 M after 20 mins; assay type: ADME; conditions: liver microsomes, probe midazolam (1'-hydroxylation), read-out: INH
Rattus norvegicus [10] = assay: Antiinflammatory activity in rat assessed as inhibition of carrageenan-induced paw edema at 20 mg/kg , po incubated for 30 mins followed by carrageenan treatment further incubated for 3 hrs by plethysmometer relative to ibuprofen; assay type: functional
H5N1 subtype = assay: Antiviral activity against H5N1 virus infected in MDCK cells assessed as virus-induced cytopathogenicity infected for 2 hrs followed by virus washout and incubated for 3 days; assay type: functional, organism-based; conditions: Influenza A virus
[11] = Cytotoxicity against dog MDCK cells assessed as reduction in cell viability incubated for 24 hrs by MTT assay; assay type: cell-based, Canis lupus familiaris; conditions: read-out: LD50
Mus musculus = assay: Antiinflammatory activity in carrageenan-induced C57Bl/6 mouse model of inflammation assessed as inhibition of PGE2 accumulation in air pouch at 0.1 to 10 mg/kg , po pretreated with carrageenan for 20 hrs and followed by compound administration and measured after 4 hrs; assay type: functional; conditions: C57B1/6, po
[12] = target: Prostaglandin G/H synthase 2 (Oryctolagus cuniculus, UniProt O02768); assay: Inhibition of COX2 in rabbit whole blood assessed as reduction of LPS-induced PGE2 accumulation at 10 to 10000 nM preincubated with LPS followed by compound addition and incubated for 6 or 24 hrs by EIA method; assay type: tissue-based
Chain of Prostaglandin G/H synthase 2 (Oryctolagus cuniculus, UniProt O02768) (O02768 whole entry): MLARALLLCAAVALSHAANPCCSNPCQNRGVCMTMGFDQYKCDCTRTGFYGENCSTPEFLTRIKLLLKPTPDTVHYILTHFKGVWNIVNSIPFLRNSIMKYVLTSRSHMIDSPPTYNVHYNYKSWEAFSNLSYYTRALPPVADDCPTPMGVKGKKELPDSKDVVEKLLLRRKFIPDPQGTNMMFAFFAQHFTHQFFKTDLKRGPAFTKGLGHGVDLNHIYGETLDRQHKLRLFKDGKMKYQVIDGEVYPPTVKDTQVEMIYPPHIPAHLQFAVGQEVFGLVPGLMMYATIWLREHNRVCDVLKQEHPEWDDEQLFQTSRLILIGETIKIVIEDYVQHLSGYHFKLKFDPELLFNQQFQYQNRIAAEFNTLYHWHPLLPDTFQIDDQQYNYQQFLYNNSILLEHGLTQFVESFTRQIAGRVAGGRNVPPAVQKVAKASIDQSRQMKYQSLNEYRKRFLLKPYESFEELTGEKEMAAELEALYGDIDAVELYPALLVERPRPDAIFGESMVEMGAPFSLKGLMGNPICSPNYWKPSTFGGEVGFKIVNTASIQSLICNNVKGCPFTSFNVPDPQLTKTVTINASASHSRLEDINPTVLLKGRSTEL

[13] = target: Prostaglandin G/H synthase 2 (Cavia porcellus, UniProt P70682); assay: Inhibition of COX2 in guinea pig blood assessed as reduction of LPS-induced PGE2 accumulation at 10 to 10000 nM preincubated with LPS followed by compound addition and incubated for 6 or 24 hrs by EIA method; assay type: tissue-based
Chain of Prostaglandin G/H synthase 2 (Cavia porcellus, UniProt P70682) (P70682 whole entry): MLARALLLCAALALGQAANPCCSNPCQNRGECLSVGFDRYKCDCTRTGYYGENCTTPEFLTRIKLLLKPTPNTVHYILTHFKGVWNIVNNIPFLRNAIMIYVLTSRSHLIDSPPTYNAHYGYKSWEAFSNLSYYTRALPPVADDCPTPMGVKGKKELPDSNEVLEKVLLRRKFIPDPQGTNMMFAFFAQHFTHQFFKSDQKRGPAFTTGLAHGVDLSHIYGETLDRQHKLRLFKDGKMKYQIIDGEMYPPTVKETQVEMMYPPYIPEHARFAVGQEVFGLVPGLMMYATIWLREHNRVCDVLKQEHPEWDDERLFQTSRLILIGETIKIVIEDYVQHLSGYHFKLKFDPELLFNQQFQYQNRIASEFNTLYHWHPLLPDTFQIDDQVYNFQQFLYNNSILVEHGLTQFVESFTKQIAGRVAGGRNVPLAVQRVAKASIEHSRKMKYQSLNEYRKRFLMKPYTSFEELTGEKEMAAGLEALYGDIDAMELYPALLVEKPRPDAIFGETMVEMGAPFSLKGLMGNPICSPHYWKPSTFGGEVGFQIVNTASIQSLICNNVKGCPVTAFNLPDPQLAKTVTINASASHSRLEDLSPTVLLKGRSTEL

Globisporangium ultimum = assay: Antifungal activity against Pythium ultimum assessed as reduction in fungal cell growth incubated for 48 hrs by broth dilution method; assay type: functional
[14] = Ulcerogenicity in Wistar rat assessed as gastric lesions by measuring ulcer severity index at 60 mg/kg , po measured after 17 hrs relative to control; assay type: toxicity, organism-based; conditions: in vivo
Liver = assay: Antioxidant activity in rat liver microsomes assessed as reduction in ferrous salt/ascorbic acid-induced lipid peroxidation of membrane lipids by measuring malondialdehyde level after 90 mins by spectrophotometry; assay type: functional, Microsome; conditions: 1.5 h
[15] = Antioxidant activity assessed as DPPH radical scavenging activity measured for each 5 mins for 3 hrs; assay type: functional
[16] = Antioxidant activity assessed as superoxide anion scavenging activity at pH 7.4 phosphate buffer incubated for 5 mins by NBT assay; assay type: functional

Compound: O=C1OC(c2ccc3ccccc3c2)=C/C1=C\c1cc2ccc([N+](=O)[O-])cc2nc1Cl
- inhibition (INH) (Rattus norvegicus [1]): 56 - 63%
- UI [2]: 0.3

Compound: O=C1OC(c2ccccc2)=C/C1=C/c1ccc([N+](=O)[O-])cc1
- growth inhibition (GI) (Candida albicans): 66%

Compound: CC[C@H](C)[C@H](NC1=C(Br)C(=O)O[C@@H]1OC)C(=O)OC
- inhibition at 50 µM (A549 [3]): 82.7%
- inhibition at 100 µM (A549 [4]): 97.2%

Compound: CC1(C)OC(c2ccc(S(C)(=O)=O)cc2)=C(c2cccc(F)c2)C1=O
- ED50 (Rattus norvegicus [5]): 0.008 mg/kg/day
- inhibition in vivo at 3 mg/kg (Rattus norvegicus [6]): 36%
- UI [7]: 1.5
- inhibition in vivo at 3 mg/kg (Rattus norvegicus [8]): 47%
- IC50 [9]: 0.00832 µM

Compound: COC(=O)C1=C(C)OC(C)(C)C1=O
- activity at 20 min, 30 µM (CYP3A4): 57.1%

Compound: CC(C)Cc1ccc(C2=C/C(=C\c3ccc(Cl)cc3Cl)C(=O)O2)cc1
- inhibition in vivo at 20 mg/kg (Rattus norvegicus [10]): 66.1%

Compound: O=C1OC(c2ccccc2)=C/C1=N/Nc1ccc(Br)cc1
- EC50 (H5N1 subtype): < 100 µg/mL
- CC50 at 24 h [11]: < 100 µg/mL

Compound: CS(=O)(=O)c1ccc(C2=C(c3ccc(F)c(F)c3)C(=O)OC2)cc1
- ED50 (Mus musculus): 0.5 mg/kg
- IC50 [12]: 2.8 µM
- IC50 [13]: 0.6 µM

Compound: Cc1cc(O)c2c(c1)C(c1c(O)cccc1O)OC2=O (configuration not stated)
- MIC (Globisporangium ultimum): 40 µg/mL (≈ 147 µM)

Compound: CC(C)Cc1ccc(C(C)C(=O)O)cc1 (configuration not stated) [IBUPROFEN]
- UI [14]: 0.9

Compound: O=C1OC(c2cccc(O)c2O)C(c2ccccc2)=C1O (configuration not stated)
- IC50 (Liver): 129 µM
- IC50 [15]: 10.3 µM
- IC50 [16]: 187 µM
